Assays:
corn [1] = test: Test A preemergence; assay type: in vivo, Zea mays
Outline: (§1)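 Greenhouse pot test, 10 days. Compound (non-phytotoxic solvent, surfactant) sprayed on soil at seeding or on seedlings at one- to two-leaf stage. Visual injury rated 0–100 against untreated plants.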

ragweed [2] = test: Test A postemergence; assay type: in vivo, Ambrosia artemisiifolia; details: 500 g ai/ha, postemergence, 10 days, visual injury, 0 to 100 scale (0 no effect, 100 complete control)
Outline: as §1

wheat [3] = test: Test A postemergence; assay type: in vivo, Triticum aestivum; details: 500 g ai/ha, postemergence, 10 days, visual injury, 0 to 100 scale (0 no effect, 100 complete control)
Outline: as §1

goosegrass [4] = test: Test A preemergence; assay type: in vivo, Eleusine indica
Outline: as §1

foxtail, giant [5] = test: Test A postemergence; assay type: in vivo, Setaria faberi; details: postemergence, 10 days, visual injury, 0 to 100 scale (0 no effect, 100 complete control)
Outline: as §1

ducksalad = test: Test B flooded paddy test; assay type: in vivo, Heteranthera limosa; details: 250 g ai/ha, Flood, 13 days, 0 to 100 scale (0 no effect, 100 complete control)
Outline: (§2)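 Visual scores from 0 (no effect) to 100 (complete kill) were assigned 13 days after treatment by comparison with controls. Seedlings had been treated at two leaves by adding compound to floodwater standing 3 cm deep, kept at that level in the greenhouse.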

blackgrass [6] = test: Test A preemergence; assay type: in vivo, Alopecurus myosuroides
Outline: as §1

pigweed, palmer [7] = test: Test A postemergence; assay type: in vivo, Amaranthus palmeri; details: 500 g ai/ha, postemergence, 10 days, visual injury, 0 to 100 scale (0 no effect, 100 complete control)
Outline: as §1

ragweed [8] = test: Test A preemergence; assay type: in vivo, Ambrosia artemisiifolia
Outline: as §1

barnyardgrass = test: Test B flooded paddy test; assay type: in vivo, Echinochloa crus-galli; details: 250 g ai/ha, Flood, 13 days, 0 to 100 scale (0 no effect, 100 complete control)
Outline: as §2

oat, wild [9] = test: Test A preemergence; assay type: in vivo, Avena fatua
Outline: as §1

foxtail, giant [10] = test: Test A preemergence; assay type: in vivo, Setaria faberi
Outline: as §1

wheat [11] = test: Test A preemergence; assay type: in vivo, Triticum aestivum
Outline: as §1

corn [12] = test: Test A postemergence; assay type: in vivo, Zea mays; details: postemergence, 10 days, visual injury, 0 to 100 scale (0 no effect, 100 complete control)
Outline: as §1

kochia [13] = test: Test A preemergence; assay type: in vivo, Bassia scoparia
Outline: as §1

kochia [14] = test: Test A postemergence; assay type: in vivo, Bassia scoparia; details: postemergence, 10 days, visual injury, 0 to 100 scale (0 no effect, 100 complete control)
Outline: as §1

horseweed = test: Test A postemergence; assay type: in vivo, Erigeron canadensis; details: postemergence, 10 days, visual injury, 0 to 100 scale (0 no effect, 100 complete control)
Outline: as §1

sedge, umbrella = test: Test B flooded paddy test; assay type: in vivo, Cyperus difformis; details: 250 g ai/ha, Flood, 13 days, 0 to 100 scale (0 no effect, 100 complete control)
Outline: as §2

rice = test: Test B flooded paddy test; assay type: in vivo, Oryza sativa; details: 250 g ai/ha, Flood, 13 days, 0 to 100 scale (0 no effect, 100 complete control)
Outline: as §2

galium = test: Test A postemergence; assay type: in vivo, Galium aparine; details: postemergence, 10 days, visual injury, 0 to 100 scale (0 no effect, 100 complete control)
Outline: as §1

goosegrass [15] = test: Test A postemergence; assay type: in vivo, Eleusine indica; details: postemergence, 10 days, visual injury, 0 to 100 scale (0 no effect, 100 complete control)
Outline: as §1

oat, wild [16] = test: Test A postemergence; assay type: in vivo, Avena fatua; details: 500 g ai/ha, postemergence, 10 days, visual injury, 0 to 100 scale (0 no effect, 100 complete control)
Outline: as §1

blackgrass [17] = test: Test A postemergence; assay type: in vivo, Alopecurus myosuroides
Outline: as §1

soybean [18] = test: Test A postemergence; assay type: in vivo, Glycine max; details: 500 g ai/ha, postemergence, 10 days, visual injury, 0 to 100 scale (0 no effect, 100 complete control)
Outline: as §1

ryegrass, Italian [19] = test: Test A preemergence; assay type: in vivo, Lolium multiflorum
Outline: as §1

pigweed, palmer [20] = test: Test A preemergence; assay type: in vivo, Amaranthus palmeri
Outline: as §1

ryegrass, Italian [21] = test: Test A postemergence; assay type: in vivo, Lolium multiflorum; details: 500 g ai/ha, postemergence, 10 days, visual injury, 0 to 100 scale (0 no effect, 100 complete control)
Outline: as §1

soybean [22] = test: Test A preemergence; assay type: in vivo, Glycine max
Outline: as §1

[23] = 125 g ai/ha, visual injury after 10 days, 0 to 100 scale, 0 is no effect, 100 is complete control
[24] = 500 g ai/ha, 0 to 100 scale (0 no effect, 100 complete control), 10 days

In the case of C[C@H]1CN(C(=O)c2cc(-n3cncn3)ccc2C(F)(F)F)c2cccc(Cl)c2O1 [Compound 70], the “Plant response rating, Corn” value (corn [1]; [23]) is reported as 10, the “Plant response rating, Corn” value (corn [1]; [24]) is reported as 20 and the “Plant response rating, Ragweed” value (ragweed [2]) is reported as 0. The “Plant response rating, Wheat” value (wheat [3]) was 20, the “Plant response rating, Goosegrass” value (goosegrass [4]; [23]) was 70 and the “Plant response rating, Goosegrass” value (goosegrass [4]; [24]) was 100. For the same compound, the “Plant response rating, Foxtail, Giant” value (foxtail, giant [5]; 125 g ai/ha) was 10, the “Plant response rating, Foxtail, Giant” value (foxtail, giant [5]; 500 g ai/ha) was 30 and the “Plant response rating, Ducksalad” value (ducksalad) was 0. The “Plant response rating, Blackgrass” value (blackgrass [6]; [23]) was 30, the “Plant response rating, Blackgrass” value (blackgrass [6]; [24]) was 80 and the “Plant response rating, Pigweed, Palmer” value (pigweed, palmer [7]) was 70. The “Plant response rating, Ragweed” value (ragweed [8]; [23]) was 0, the “Plant response rating, Ragweed” value (ragweed [8]; [24]) was 0 and the “Plant response rating, Barnyardgrass” value (barnyardgrass) was 0. For the same compound, the “Plant response rating, Oat, Wild” value (oat, wild [9]; [23]) was 0, the “Plant response rating, Oat, Wild” value (oat, wild [9]; [24]) was 70 and the “Plant response rating, Foxtail, Giant” value (foxtail, giant [10]; [23]) was 20. The “Plant response rating, Foxtail, Giant” value (foxtail, giant [10]; [24]) was 100, the “Plant response rating, Wheat” value (wheat [11]; [23]) was 0 and the “Plant response rating, Wheat” value (wheat [11]; [24]) was 10. For the same compound, the “Plant response rating, Corn” value (corn [12]; 125 g ai/ha) was 10, the “Plant response rating, Corn” value (corn [12]; 500 g ai/ha) was 10 and the “Plant response rating, Kochia” value (kochia [13]; [23]) was 0. For the same compound, the “Plant response rating, Kochia” value (kochia [13]; [24]) was 0, the “Plant response rating, Kochia” value (kochia [14]; 125 g ai/ha) was 10 and the “Plant response rating, Kochia” value (kochia [14]; 500 g ai/ha) was 60. For the same compound, the “Plant response rating, Horseweed” value (horseweed; 125 g ai/ha) was 0, the “Plant response rating, Horseweed” value (horseweed; 500 g ai/ha) was 0 and the “Plant response rating, Sedge, Umbrella” value (sedge, umbrella) was 0. For the same compound, the “Plant response rating, Rice” value (rice) was 0, the “Plant response rating, Galium” value (galium; 125 g ai/ha) was 50 and the “Plant response rating, Galium” value (galium; 500 g ai/ha) was 80. The “Plant response rating, Goosegrass” value (goosegrass [15]; 125 g ai/ha) was 10, the “Plant response rating, Goosegrass” value (goosegrass [15]; 500 g ai/ha) was 10 and the “Plant response rating, Oat, Wild” value (oat, wild [16]) was 10. For the same compound, the “Plant response rating, Blackgrass” value (blackgrass [17]; 125 g ai/ha, postemergence, 10 days, visual injury, 0 to 100 scale (0 no effect, 100 complete control)) was 30, the “Plant response rating, Blackgrass” value (blackgrass [17]; 500 g ai/ha, Postemergence, 0 to 100 scale) was 70 and the “Plant response rating, Soybean” value (soybean [18]) was 100. The “Plant response rating, Ryegrass, Italian” value (ryegrass, Italian [19]; [23]) was 50, the “Plant response rating, Ryegrass, Italian” value (ryegrass, Italian [19]; [24]) was 90 and the “Plant response rating, Pigweed, Palmer” value (pigweed, palmer [20]; [23]) was 20. The “Plant response rating, Pigweed, Palmer” value (pigweed, palmer [20]; [24]) was 90, the “Plant response rating, Ryegrass, Italian” value (ryegrass, Italian [21]) was 30 and the “Plant response rating, Soybean” value (soybean [22]; [23]) was 0. The “Plant response rating, Soybean” value (soybean [22]; [24]) was 0.

Source: patent publication US20260262643A1, “HERBICIDAL BENZOXAZINES” (FMC CORPORATION, priority 2022, published 2026)
